Measured values taken from patent US6444664B1, “Method for controlling the plasma level of lipoproteins to treat alzheimeris disease” (Nederlandse Organisatie voor Toegepast - Natuurweten …, priority 1997, dated 2002).
Read-outs that look alike come from different tables or passages of the source.

How the values were obtained:
apo B-100 [1] = experiment: Apo B-100 synthesis by cultured cynomolgus (simian) hepatocytes, ELISA of medium; format: cell-based, cynomolgus monkey; conditions: culture period 48 h to 72 h
apo(a) [2] = experiment: Apo(a) synthesis by cultured cynomolgus (simian) hepatocytes, ELISA of medium; format: cell-based, cynomolgus monkey; conditions: culture period 48 h to 72 h
apo A-I [3] = experiment: Apo A-I synthesis by cultured cynomolgus (simian) hepatocytes, ELISA of medium; format: cell-based, cynomolgus monkey; conditions: culture period 48 h to 72 h
apo(a) [4] = experiment: Apo(a) synthesis by cultured human hepatocytes, ELISA of medium; format: cell-based; conditions: culture period 48 h to 72 h
apo A-I [5] = experiment: Apo A-I synthesis by cultured human hepatocytes, ELISA of medium; format: cell-based; conditions: culture period 48 h to 72 h
apo A-I mRNA [6] = experiment: Apo A-I mRNA levels in human hepatocytes, RNA hybridization; format: cell-based; conditions: 100 μM, cultured 48 h
apo B-100 [7] = experiment: Apo B-100 synthesis by cultured human hepatocytes, ELISA of medium; format: cell-based; conditions: culture period 48 h to 72 h
apo A-I mRNA [8] = experiment: Apo A-I mRNA levels in cynomolgus hepatocytes, RNA hybridization; format: cell-based, cynomolgus monkey; conditions: 100 μM, cultured 48 h
Description: (§1) Total RNA was isolated from cynomolgus hepatocytes, cultured for 48 h in the presence or absence of the compounds, by the method of Chomczynski & Sacchi (33). After washing the RNA pellets with 70% (v/v) ethanol, RNA samples were dissolved in water. The RNA concentration in each sample was determined spectrophotometrically, assuming that one A260 unit corresponds with 40 μg RNA/mL. Equal amounts of total RNA (10 μg) from different incubations were fractionated by, elcctrophoresis in a 0.8% (w/v) agarose gel containing 0.27 M formaldehyde, and transferred to Hybond-N+ (Amershamn) in accordance with the manufacturer's instructions and UV cross-linked. Probes, labelling conditions and hybridization were performed as described previously in detail (25).
(§2) Apo(a) mRNAs were detected using a kringle IV synthetic double-stranded probe of 75 nucleotides with the sense sequence: GGGAATTCGAACCTGCCAAGCTTGGTCATCTATGACACCACACTCGCATAGTCGGACCCC AGAATAAAGCTTGGG, based on the sequence published by McLean et al (34). This probe was labelled by the random primer method according to Megaprime™ DNA labelling systems (Amersham). After hybridization, the blots were washed twice with 2×SSC/1% SDS (1×SSC=0.15 mol/L NaCl/0.015 mol/L sodium citrate, pH 7.0) and twice with 1×SSC/1% SDS for 30 min at 65° C. The blots were exposed to a Fuji imaging plate type BAS-MP for 1 to 24 h. The relative amounts of mRNA were quantified using a phospho-imager (Fuji Fujix BAS 1000) and the computer programs BAS-reader version 2.8 and TINA version 2.08 c.
(§3) Data shown in table 2 are obtained from measurements using RNA isolated from hepatocytes cultured for 48 h with or without the compounds.

apo(a) mRNA [9] = experiment: Apo(a) mRNA levels in cynomolgus hepatocytes, RNA hybridization; format: cell-based, cynomolgus monkey; conditions: 100 μM, cultured 48 h
Description: as §1, §2, §3

apo(a) mRNA [10] = experiment: Apo(a) mRNA levels in human hepatocytes, RNA hybridization; format: cell-based; conditions: 100 μM, cultured 48 h
Description: as §1, §2, §3

lp(a) = conditions: cited from earlier work

Compound: COc1cc([C@@H]2OC[C@H](c3cc(OC)c(OC)c(OC)c3)O2)cc(OC)c1OC (relative stereo) [Cisdioxolane, Cis-2,4-bis(3,4,5-trimethoxyphenyl)dioxolane, reference compound]
- Apo B-100 synthesis (apo B-100 [1]; 100 μM): 99 ± 21 (3) % of control
- Apo(a) synthesis (apo(a) [2]; 100 μM): 83 ± 2 (3) % of control
- Apo A-I synthesis (apo A-I [3]; 100 μM): 229 ± 79 (2) % of control

Compound: COc1cc([C@H]2CC[C@H](c3cc(OC)c(OC)c(OC)c3)O2)cc(OC)c1OC (relative stereo) [L-652,731, Trans-2,5-bis(3,4,5-trimethoxyphenyl)tetrahydrofuran, reference compound]
- Apo B-100 synthesis (apo B-100 [1]; 100 μM): 76 ± 35 (2) % of control
- Apo(a) synthesis (apo(a) [2]; 100 μM): 66 ± 8 (2) % of control
- Apo A-I synthesis (apo A-I [3]; 100 μM): 134 ± 1 (2) % of control

Compound: CCCCCCCCCCCCCCCCCCNC(=O)OC[C@@H]1CC[C@H](COP(=O)([O-])OCC[n+]2cccc3ccccc32)O1 (relative stereo) [SRI 63-441, O-cis-5-(octadecylcarbamoyloxymethyl)-2-tetrahydrofurylmethyl O-(2-quinolinio-ethyl) hydrogen phosphate, reference compound]
- Apo B-100 synthesis (apo B-100 [1]; 100 μM): 142 ± 32 (2) % of control
- Apo(a) synthesis (apo(a) [2]; 100 μM): 24 ± 1 (2) % of control
- Apo A-I synthesis (apo A-I [3]; 100 μM): 166 ± 6 (2) % of control

Compound: COc1cc([C@@H]2OC[C@@H](c3cc(OC)c(OC)c(OC)c3)O2)cc(OC)c1OC (relative stereo) [Transdioxolane, Trans-2,4-bis(3,4,5-trimethoxyphenyl)dioxolane, reference compound]
- Apo B-100 synthesis (apo B-100 [1]; 30 μM): 117 ± 23 (3) % of control
- Apo B-100 synthesis (apo B-100 [1]; 100 μM): 105 ± 7 (3) % of control
- Apo(a) synthesis (apo(a) [2]; 30 μM): 103 ± 9 (3) % of control
- Apo(a) synthesis (apo(a) [2]; 100 μM): 60 ± 12 (3) % of control
- Apo A-I synthesis (apo A-I [3]; 30 μM): 116 ± 7 (3) % of control
- Apo A-I synthesis (apo A-I [3]; 100 μM): 157 ± 2 (3) % of control

Compound: Cc1nnc2n1-c1sccc1C(c1ccccc1)=NC2 [Azepine 1]
- Apo(a) synthesis (apo(a) [4]; 3 μM): 75 (1) % of control
- Apo(a) synthesis (apo(a) [4]; 10 μM): 48 (1) % of control
- Apo(a) synthesis (apo(a) [4]; 30 μM): 24 (1) % of control
- Apo(a) synthesis (apo(a) [4]; 100 μM): 14 (1) % of control
- Apo A-I synthesis (apo A-I [5]; 3 μM): 164 ± 61 (2) % of control
- Apo A-I synthesis (apo A-I [5]; 10 μM): 283 ± 109 (2) % of control
- Apo A-I synthesis (apo A-I [5]; 30 μM): 622 ± 228 (2) % of control
- Apo A-I synthesis (apo A-I [5]; 100 μM): 721 ± 212 (2) % of control
- Apo B-100 synthesis (apo B-100 [1]; 3 μM): 117 ± 10 (2) % of control
- Apo B-100 synthesis (apo B-100 [1]; 10 μM): 113 ± 20 (6) % of control
- Apo B-100 synthesis (apo B-100 [1]; 30 μM): 106 ± 27 (6) % of control
- Apo B-100 synthesis (apo B-100 [1]; 100 μM): 95 ± 23 (6) % of control
- Apo A-I mRNA levels relative to GAPDH (apo A-I mRNA [6]): 111 (1) % of control
- Apo A-I mRNA levels relative to actin (apo A-I mRNA [6]): 203 (1) % of control
- Apo A-I mRNA levels relative to rRNA (apo A-I mRNA [6]): 308 (1) % of control
- Apo B-100 synthesis (apo B-100 [7]; 3 μM): 83 ± 16 (2) % of control
- Apo B-100 synthesis (apo B-100 [7]; 10 μM): 112 ± 3 (2) % of control
- Apo B-100 synthesis (apo B-100 [7]; 30 μM): 109 ± 8 (2) % of control
- Apo B-100 synthesis (apo B-100 [7]; 100 μM): 114 ± 8 (2) % of control
- Apo A-I mRNA levels relative to GAPDH (apo A-I mRNA [8]): 147 ± 28 (3) % of control
- Apo A-I mRNA levels relative to actin (apo A-I mRNA [8]): 328 ± 7 (3) % of control
- Apo A-I mRNA levels relative to rRNA (apo A-I mRNA [8]): 229 ± 8 (3) % of control
- Apo(a) mRNA levels relative to GAPDH (apo(a) mRNA [9]): 39 ± 4 (3) % of control
- Apo(a) mRNA levels relative to actin (apo(a) mRNA [9]): 86 ± 7 (3) % of control
- Apo(a) mRNA levels relative to rRNA (apo(a) mRNA [9]): 56 ± 12 (3) % of control
- Apo(a) mRNA levels relative to GAPDH (apo(a) mRNA [10]): 24 (1) % of control
- Apo(a) mRNA levels relative to actin (apo(a) mRNA [10]): 44 (1) % of control
- Apo(a) mRNA levels relative to rRNA (apo(a) mRNA [10]): 67 (1) % of control
- Apo(a) synthesis (apo(a) [2]; 3 μM): 85 ± 5 (2) % of control
- Apo(a) synthesis (apo(a) [2]; 10 μM): 76 ± 19 (6) % of control
- Apo(a) synthesis (apo(a) [2]; 30 μM): 48 ± 28 (6) % of control
- Apo(a) synthesis (apo(a) [2]; 100 μM): 34 ± 32 (6) % of control
- Apo A-I synthesis (apo A-I [3]; 3 μM): 152 ± 30 (2) % of control
- Apo A-I synthesis (apo A-I [3]; 10 μM): 185 ± 20 (6) % of control
- Apo A-I synthesis (apo A-I [3]; 30 μM): 225 ± 45 (6) % of control
- Apo A-I synthesis (apo A-I [3]; 100 μM): 367 ± 131 (6) % of control

Compound: c1ccc(C2=NCc3nncn3-c3sccc32)cc1 [Azepine 2]
- Apo(a) synthesis (apo(a) [2]; 30 μM): no change
- Apo A-I synthesis (apo A-I [3]; 30 μM): 178 (1) % of control

Compound: Cc1nnc2n1-c1ccc(Cl)cc1C(c1ccccc1)=NC2C (stereo not shown) [Azepine 3]
- Apo B-100 synthesis (apo B-100 [1]; 100 μM): 102 ± 32 (2) % of control
- Apo(a) synthesis (apo(a) [2]; 100 μM): 42 ± 20 (3) % of control
- Apo A-I synthesis (apo A-I [3]; 100 μM): 359 ± 74 (3) % of control

Compound: Brc1nnc2n1-c1ccccc1C(c1ccccc1)=NC2 [Azepine 4]
- Apo B-100 synthesis (apo B-100 [1]; 100 μM): 95 ± 23 (2) % of control
- Apo(a) synthesis (apo(a) [2]; 100 μM): 62 ± 22 (2) % of control
- Apo A-I synthesis (apo A-I [3]; 100 μM): 390 ± 40 (2) % of control

Compound: CC1C(=O)OC2C(O)C34C5CC(C(C)(C)C)C36C(OC(=O)C6O)OC4(C(=O)O5)C12O (stereo not shown) [BN 52051, Ginkgolide B, reference compound]
- Apo B-100 synthesis (apo B-100 [1]; 100 μM): 113 ± 34 (2) % of control
- Apo(a) synthesis (apo(a) [2]; 100 μM): 101 ± 1 (2) % of control
- Apo A-I synthesis (apo A-I [3]; 100 μM): 144 ± 34 (2) % of control

Compound: O=C(O)c1cccnc1 [nicotinic acid]
- Reduction of plasma levels of lp(a) (lp(a); alone (4 g/day)): ~38%
- Reduction of plasma levels of lp(a) (lp(a); in combination with neomycine (3 g/day and 2 g/day respectively)): ~45%
